From patent US8952024B2, “Herbicidal pyrimidone derivatives” (E I du Pont de Nemours and Company, priority 2009, dated 2015)

Columns and labels:
Assay type in all cases: in vivo
[1] = system: giant foxtail (Setaria faberii); assay: Test B pre-/postemergence plant response; settings: for Plant response rating, Foxtail, Giant: Postemergence
Description: (§1) Seeds of plant species selected from blackgrass (Alopecurus myosuroides), downy bromegrass (Bromus tectorum), green foxtail (Setaria viridis), Italian ryegrass (Lolium multiflorum), wheat (Triticum aestivum), wild oat (Avena fatua), deadnettle (henbit deadnettle, Lamium amplexicaule), galium (catchweed bedstraw, Galium aparine), bermudagrass (Cynodon dactylon), Surinam grass (Brachiaria decumbens), cocklebur (Xanthium strumarium), corn (Zea mays), large crabgrass (Digitaria sanguinalis), woolly cupgrass (Eriochloa villosa), giant foxtail (Setaria faberii), goosegrass (Eleusine indica), johnsongrass (Sorghum halepense), kochia (Kochia scoparia), lambsquarters (Chenopodium album), morningglory (Ipomoea coccinea), nightshade (eastern black nightshade, Solanum ptycanthum), yellow nutsedge (Cyperus esculentus), pigweed (Amaranthus retroflexus), ragweed (common ragweed, Ambrosia elatior), Russian thistle (Salsola kali), soybean (Glycine max), sunflower (common oilseed sunflower, Helianthus annuus) and velvetleaf (Abutilon theophrasti) were planted into a blend of loam soil and sand and treated preemergence with test compounds formulated in a non-phytotoxic solvent mixture which included a surfactant.
(§2) At the same time, plants selected from these crop and weed species and also winter barley (Hordeum vulgare), canarygrass (Phalaris minor), chickweed (Stellaria media) and windgrass (Apera spica-venti) were planted in pots containing Redi-Earth® planting medium (Scotts Company, 14111 Scottslawn Road, Marysville, Ohio 43041) comprising spaghnum peat moss, vermiculite, wetting agent and starter nutrients and treated with postemergence applications of some of the test chemicals formulated in the same manner. Plants ranged in height from 2 to 18 cm (1- to 4-leaf stage) for postemergence treatments.
(§3) Treated plants and controls were maintained in a greenhouse for 13 to 15 days, after which time all treated plants were visually evaluated and compared to controls. Plant response ratings, summarized in Table B, are based on a scale of 0 to 100 where 0 is no effect and 100 is complete control. A dash (-) response means no test result.

[2] = system: cocklebur (Xanthium strumarium); assay: Test B pre-/postemergence plant response; settings: for Plant response rating, Cocklebur: Postemergence
Description: as §1, §2, §3

[3] = system: Italian ryegrass (Lolium multiflorum); assay: Test B pre-/postemergence plant response; settings: for Plant response rating, Ryegrass, Italian: Postemergence
Description: as §1, §2, §3

[4] = system: downy bromegrass (Bromus tectorum); assay: Test B pre-/postemergence plant response; settings: for Plant response rating, Bromegrass, Downy: Postemergence
Description: as §1, §2, §3

[5] = system: blackgrass (Alopecurus myosuroides); assay: Test B pre-/postemergence plant response; settings: for Plant response rating, Blackgrass: Postemergence
Description: as §1, §2, §3

corn (Zea mays) = assay: Test B pre-/postemergence plant response; settings: for Plant response rating, Corn: Postemergence
Description: as §1, §2, §3

[6] = system: pigweed (Amaranthus retroflexus); assay: Test B pre-/postemergence plant response; settings: for Plant response rating, Pigweed: Postemergence
Description: as §1, §2, §3

[7] = system: morningglory (Ipomoea coccinea); assay: Test B pre-/postemergence plant response; settings: for Plant response rating, Morningglory: Postemergence
Description: as §1, §2, §3

wild oat (Avena fatua) = assay: Test B pre-/postemergence plant response; settings: for Plant response rating, Oat, Wild: Postemergence
Description: as §1, §2, §3

[8] = system: Surinam grass (Brachiaria decumbens); assay: Test B pre-/postemergence plant response; settings: for Plant response rating, Surinam Grass: Postemergence
Description: as §1, §2, §3

[9] = system: windgrass (Apera spica-venti); assay: Test B postemergence plant response; settings: for Plant response rating, Windgrass: Postemergence
In short: (§4)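 Plants grown in peat/vermiculite medium were sprayed postemergence at 2–18 cm height (1- to 4-leaf stage). After 13–15 days in the greenhouse, response was rated visually against untreated controls on a 0–100 scale (0 no effect, 100 complete control).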

[10] = system: chickweed (Stellaria media); assay: Test B postemergence plant response; settings: for Plant response rating, Chickweed: Postemergence
In short: as §4

[11] = system: canarygrass (Phalaris minor); assay: Test B postemergence plant response; settings: for Plant response rating, Canarygrass: Postemergence
In short: as §4

[12] = 62 g ai/ha, postemergence, 0 is no effect, 100 is complete control, 13 to 15 days
[13] = 31 g ai/ha, 0 to 100 scale (0 no effect, 100 complete control)
[14] = 125 g ai/ha, scale 0 to 100 (0 no effect, 100 complete control)

## O=C1CCCC(O)=C1C(=O)c1cnc(-c2ccccc2)n(C2CCCC2)c1=O [Compound 131]
[1]; 16 g ai/ha, 0 to 100 scale
  Plant response rating, Foxtail, Giant: 65
[1]; [12]
  Foxtail, Giant plant response rating (0 to 100 scale): 75
[1]; [13]
  Plant response rating, Foxtail, Giant: 75
[1]; [14]
  Plant response rating, Foxtail, Giant: 80
[2]; 16 g ai/ha, 0 to 100 scale
  Plant response rating, Cocklebur: 80
[2]; [12]
  Cocklebur plant response rating (0 to 100 scale): 98
[2]; [13]
  Plant response rating, Cocklebur: 95
[2]; [14]
  Plant response rating, Cocklebur: 100
[3]; 16 g ai/ha, 0 to 100 scale
  Plant response rating, Ryegrass, Italian: 0
[3]; [12]
  Ryegrass, Italian plant response rating (0 to 100 scale): 0
[3]; [13]
  Plant response rating, Ryegrass, Italian: 0
[3]; [14]
  Plant response rating, Ryegrass, Italian: 0
[4]; 16 g ai/ha, 0 to 100 scale
  Plant response rating, Bromegrass, Downy: 0
[4]; [12]
  Bromegrass, Downy plant response rating (0 to 100 scale): 0
[4]; [13]
  Plant response rating, Bromegrass, Downy: 0
[4]; [14]
  Plant response rating, Bromegrass, Downy: 0
[5]; 16 g ai/ha, 0 to 100 scale
  Plant response rating, Blackgrass: 0
[5]; [12]
  Blackgrass plant response rating (0 to 100 scale): 0
[5]; [13]
  Plant response rating, Blackgrass: 0
[5]; [14]
  Plant response rating, Blackgrass: 0
Corn (Zea mays); 16 g ai/ha, 0 to 100 scale
  Plant response rating, Corn: 0
Corn (Zea mays); [12]
  Corn plant response rating (0 to 100 scale): 10
Corn (Zea mays); [13]
  Plant response rating, Corn: 0
Corn (Zea mays); [14]
  Plant response rating, Corn: 20
[6]; 16 g ai/ha, 0 to 100 scale
  Plant response rating, Pigweed: 60
[6]; [12]
  Pigweed plant response rating (0 to 100 scale): 95
[6]; [13]
  Plant response rating, Pigweed: 90
[6]; [14]
  Plant response rating, Pigweed: 100
[7]; 16 g ai/ha, 0 to 100 scale
  Plant response rating, Morningglory: 5
[7]; [12]
  Morningglory plant response rating (0 to 100 scale): 70
[7]; [13]
  Plant response rating, Morningglory: 70
[7]; [14]
  Plant response rating, Morningglory: 75
Wild oat (Avena fatua); 16 g ai/ha, 0 to 100 scale
  Plant response rating, Oat, Wild: 0
Wild oat (Avena fatua); [12]
  Oat, Wild plant response rating (0 to 100 scale): 0
Wild oat (Avena fatua); [13]
  Plant response rating, Oat, Wild: 0
Wild oat (Avena fatua); [14]
  Plant response rating, Oat, Wild: 0
[8]; 16 g ai/ha, 0 to 100 scale
  Plant response rating, Surinam Grass: 15
[8]; [12]
  Surinam Grass plant response rating (0 to 100 scale): 60
[8]; [13]
  Plant response rating, Surinam Grass: 20
[8]; [14]
  Plant response rating, Surinam Grass: 65
[9]; 16 g ai/ha, 0 to 100 scale
  Plant response rating, Windgrass: 0
[9]; [12]
  Windgrass plant response rating (0 to 100 scale): 0
[9]; [13]
  Plant response rating, Windgrass: 0
[9]; [14]
  Plant response rating, Windgrass: 5
[10]; 16 g ai/ha, 0 to 100 scale
  Plant response rating, Chickweed: 45
[10]; [12]
  Chickweed plant response rating (0 to 100 scale): 80
[10]; [13]
  Plant response rating, Chickweed: 65
[10]; [14]
  Plant response rating, Chickweed: 90
[11]; 16 g ai/ha, 0 to 100 scale
  Plant response rating, Canarygrass: 0
[11]; [12]
  Canarygrass plant response rating (0 to 100 scale): 0
[11]; [13]
  Plant response rating, Canarygrass: 0
[11]; [14]
  Plant response rating, Canarygrass: 0
